# Assay results from patent US20070112068A1, “Nitrile compound and its use in pest control” (priority 2003, published 2007).
# What was measured:
# Type in all cases: in vivo
# Megaselia spiracularis = assay: Experimental Example 8: treated filter paper suspended in glass chamber, Megaselia spiracularis; conditions: 2.5 ml of 2% (w/v) acetone solution on filter paper; 70 cm cube chamber; 2 hours exposure, 24 hours later
# Method: (§1) A 2% (w/v) solution of the present compound (31) in acetone was prepared. Onto a filter paper with 10 cm×12.5 cm, 2.5 ml of the solution was added dropwise uniformly and then air-dried. This filter paper was suspended from the center of the ceiling of a glass chamber with 70 cm (width)×70 cm (depth)×70 cm (height) and therein 20 imagoes of Megaselia spiracularis were released. After 2 hours, all test pests were collected, put in a plastic cup together with absorbent cotton impregnated with 5% sugar water, and then left at 25° C. After 24 hours, the number of surviving Megaselia spiracularis was examined and the death rate was calculated.
# Blattalla germanica = assay: Experimental Example 3: treated filter paper with sucrose bait, German cockroach; conditions: 500 ppm, 0.7 ml on filter paper; two male imagoes; after 6 days
# Method: A filter paper having a diameter of 5.5 cm was spread on the bottom of a polyethylene cup having a diameter of 5.5 cm and 0.7 ml of the experimental pesticidal solution was added dropwise onto the filter paper. As a bait 30 mg of sucrose was uniformly placed on the filter paper. Into the polyethylene cup, two male Blattalla germanica imagoes were released and the cup was sealed with a lid. After 6 days, the number of surviving Blattalla germanica was examined and the death rate of the pest was calculated.
# Periplaneta americana = assay: Experimental Example 17: treated filter paper in paper box, Periplaneta americana; conditions: 0.1 ml of 5% (w/v) acetone solution on filter paper in paper box; after 7 days
# Method: A 5% (w/v) solution of the present compound (31) in acetone was prepared. 0.1 ml of the solution was added dropwise onto a filter paper with 2 cm×2 cm and then air-dried. This filter paper was attached to the center of the inside bottom of a paper box having 10 cm (width)×2 cm (height)×7 cm (depth) with a two-sided tape. One hole of 2 mm in width and 2 cm in height was made through one side of this box. This box was placed in a plastic vat with 25 cm×20 cm×8 cm in height and therein 3 females and 3 males of Periplaneta americana were released. The inside wall of the plastic vat used in this experiment was coated with talc for preventing the escape of cockroaches. The plastic vat contained feed and water and left at 25° C. After 7 days, Periplaneta americana was observed and the death rate of the pest was calculated. This experiment was repeated two times.
# Clogmia albipunctata = assay: Experimental Example 9: treated filter paper suspended in glass chamber, Clogmia albipunctata; conditions: 2.5 ml of 2% (w/v) acetone solution on filter paper; 70 cm cube chamber; 2 hours exposure, 24 hours later
# Method: as §1, with “of Clogmia albipunctata” for “of Megaselia spiracularis”, “put into” for “put in”, “surviving Clogmia albipunctata” for “surviving Megaselia spiracularis”, “was calculated (2 repetitions).” for “was calculated.”
# Blattella germanica [1] = assay: Experimental Example 15: treated filter paper in paper box, Blattella germanica; conditions: 0.1 ml of 2.5% (w/v) acetone solution on filter paper in paper box; after 7 days
# Method: 2.5% (w/v) solutions of the present compounds (23), (24) and (31) in acetone were prepared. 0.1 ml of the solution was added dropwise onto a filter paper with 2 cm×2 cm and then air-dried. This filter paper was attached to the center of the inside bottom of a paper box having 10 cm (width)×2 cm (height)×7 cm (depth) with a two-sided tape. One hole of 5 mm in width and 2 cm in height was made through one side of this box. This box was placed in a plastic vat with 25 cm×20 cm×8 cm in height and therein 10 females and 10 males of Blattella germanica were released. The inside wall of the plastic vat used in this experiment was coated with talc for preventing the escape of cockroaches. The plastic vat contained feed and water and left at 25° C. After 7 days, Blattella germanica was observed and the death rate of the pest was calculated. This experiment was repeated two times.
# Blattella germanica [2] = assay: Experimental Example 18: smoking preparation in Peet-Grady chamber, Blattella germanica; conditions: smoking preparation (Formulation Example 16); 2 hours exposure, after 72 hours
# Method: Plastic cups (diameter: 12.5 cm, height: 8 cm) containing 10 (5 males and 5 females) imagoes of Blattella germanica were placed at the two corners of a Peet-Grady chamber with 1.8 m (width)×1.8 m (depth)×1.8 m (height). A plastic container containing water was placed at the center of the bottom of the Peet-Grady chamber and a smoking preparation of the present compound (31) prepared according to Formulation Example 16 was placed in this plastic cup. After 2 hours, Blattella germanica was collected, transferred to a 200 mL plastic cup, and left together with feed and water at 25° C. After 72 hours, the number of surviving Blattella germanica was examined and the death rate of the pest was calculated.
# Culex pipiens pallens = assay: Experimental Example 27: fan-ventilated knitted fabric preparation, Culex pipiens pallens; conditions: preparation of Formulation Example 10 ventilated by electric fan; 20 minutes exposure, after 24 hours
# Method: A preparation of the present compound (31) prepared according to Formulation Example 10 is set at the upper part of an electric fun shown in FIG. 5 and then placed on the center of the floor of a chamber having 70 cm (width)×70 cm (depth)×70 cm (height). After the electric fan is operated to initiate to ventilate the preparation, about 20 female imagoes of Culex pipiens pallens are released in the chamber. After 20 minutes, all test pests are collected, placed in a plastic cup together with absorbent cotton impregnated with 5% sugar water, and left at 25° C.
# Formica fusca japonica = assay: Experimental Example 19: direct oil spray in CSMA chamber, Formica fusca japonica; conditions: 0.4 ml of 0.0625% (w/v) oil sprayed directly; after 72 hours
# Method: 18.8 mg of the present compound (31) was dissolved in 30 mL of a mixed solvent of 90 parts by weight of Isopar M (isoparaffin, the registered trade name of Exxon Chemical) and 10 parts by weight of dichloromethane to prepare a 0.0625% (w/v) oil. A plastic cup (200 mL) containing 10 imagoes of Formica fusca japonica was placed on the bottom of a CSMA chamber (width: 46 cm, depth: 46 cm, height: 70 cm). 0.4 ml of the oil was directly sprayed on the test Formica fusca japonica from the upper side of the CSMA chamber. After 10 seconds from spraying, the container containing Formica fusca japonica was removed. Formica fusca japonica was transferred to another plastic container (200 mL) and left together with feed and water at 25° C. After 72 hours from pesticide treatment, Formica fusca japonica was observed and the death rate of the pest was calculated.
# Coptotermes formosanus = assay: Experimental Example 12: topical application, Coptotermes formosanus; conditions: 0.2 μl of 0.005% (w/v) solution onto notum of thorax of ergates; after one day
# Method: The present compound (31) was dissolved in a 0.05% (w/v) solution of Sudan red 7B in acetone so that the present compound concentration was 0.005% (w/v) to prepare an experimental pesticidal solution. Onto the notum of the thorax of ergates of Coptotermes formosanus, 0.2 μl of this experimental solution was added dropwise. After one day from treatment, the number of surviving pests was examined and the death rate of the pest was calculated.
structure (smiles),measurement,setting,value
N#CC(C#N)(CCC(F)(F)F)CC(F)(F)C(F)(F)C(F)(F)C(F)F [(31)],death rate of the pest,Megaselia spiracularis,100%
same,death rate of the pest,Blattalla germanica,100%
same,death rate of the pest,Periplaneta americana,100%
same,death rate of the pest,Clogmia albipunctata,83%
same,death rate of the pest,Blattella germanica [1],100%
same,death rate of the pest,Blattella germanica [2],100%
same,pesticidal effect,Culex pipiens pallens,pesticidal effect on Culex pipiens pallens is confirmed
same,death rate of the pest,Formica fusca japonica,100%
same,death rate of the pest,Coptotermes formosanus,100%
